Experiments:
[1] = tested on: Human osteosarcoma (U2-OS) cells; assay: Detection of TBHP- or menadione-induced ROS by fluorescence microscopy; format: cell-based; conditions: 200 μM TBHP 2 hrs or 100 μM menadione 1 hr, 5 μM probe for last 30 min, washed 3× PBS
Description: Human osteosarcoma (U2-OS) cells were plated on MatTek 30 mm dishes at a density of 200,000 cells/dish and incubated at 37° C. The cells were then treated with or without 200 μM tert-butyl hydroperoxide (TBHP, 2 hrs at 37° C.) or 100 μM menadione (1 hr at 37° C.). The cells were stained with 5 μM Compound 1 for the last 30 min of the drug incubation. The cells were washed 3× with phosphate buffered saline (PBS) and imaged on a Zeiss Axiovert inverted microscope using a 40× objective.

[2] = tested on: Human aortic smooth muscle (HASM) cells; assay: Detection of angiotensin-II-induced oxidative stress by fluorescence microscopy; format: cell-based; conditions: 500 ng/ml angiotensin-II 4 hrs, 5 μM probe for last 30 min
Description: Human aortic smooth muscle (HASM) cells were plated on MatTek 30 mm dishes at a density of 150,000 cells/dish and incubated at 37° C. The cells were then treated with or without 500 ng/ml angiotensin-II for 4 hrs. The cells were stained with 5 μM Compound 1 for last 30 min of the drug incubation. The cells were washed 3× with PBS and imaged on a Zeiss Axiovert inverted microscope using a 40× objective. An increase in the signal of Compound 1 as observed for all compounds tested, indicating an increase in oxidative stress in these cell models (see, FIG. 3).

[3] = tested on: Human osteosarcoma (U2-OS) cells; assay: Resistance to formaldehyde fixation and detergent permeabilization; format: cell-based; conditions: 100 μM menadione 1 hr, 5 μM probe, 4% formaldehyde, 0.1% Triton X-100
Description: Human osteosarcoma (U2-OS) cells were plated on a 96-well plate at a density of 7,500 cells/well and incubated overnight at 37° C. The cells were treated with or without 100 μM menadione for 1 hr at 37° C. The cells were then stained with 5 μM Compound 1 and Hoechst 33342 by adding the probes to complete media and incubating at 37° C. for 30 min. The cells were washed with PBS and imaged on a Thermo Fisher Cellomics ArrayScan® VTI, either live or 4% formaldehyde fixed or formaldehyde-fixed and permeabilized with 0.1% Triton X-100.

Jurkat cells [4] = assay: Detection of oxidative stress using flow cytometry (menadione, TBHP); format: cell-based, human; conditions: menadione 25-100 μM or TBHP 50-200 μM 60 min, 5 μM probe, 488 nm laser, 530/30 filter
Description: Jurkat cells were diluted in RPMI with 10% FBS to a density of 10^6 cells/ml. Control cells were treated with vehicle control or DMSO, and sample cells were treated with different concentrations of menadione (25 μM, 50 μM, or 100 μM), or were treated with different concentrations of Tert-butyl hydroperoxide (TBHP) (50 μM, 100 μM, or 200 μM) for 60 min. Compound 1 was added to a final concentration of 5 μM for the last 30 minutes of drug incubation. The samples were acquired and analyzed on an Attune® Acoustic Focusing Cytometer. Compound 1 fluorescence was detected using the 488 nm laser and a 530/30 nm bandpass emission filter. A total of 20,000 events were collected using the standard 200 μl/minute collection rate. An increase in Compound 1 fluorescence intensity is observed in menadione and TBHP-treated cells compared to their controls (see, FIG. 6).

Jurkat cells [5] = assay: Detection of TBHP-induced ROS by flow cytometry, with or without NAC; format: cell-based, human; conditions: 500 nM probe
Description: Jurkat cells were treated with phosphate buffered saline (FIG. 7, control), 200 μM tert-butyl-hydroperoxide (FIG. 7, TBHP), or 200 μM TBHP and 1 mM N-acetyl-L-cysteine (FIG. 7, TBHP+NAC), for one hour at 37° C., 5% CO2 prior to incubation with 500 nM Compound 1. Cell samples were analyzed using a Becton Dickinson LSRII flow cytometer equipped with a 488 nm laser line and a 525/50 bandpass filter for collection of fluorescence emission of Compound 1. TBHP is a membrane-permeant pro-oxidant used extensively in a model of oxidative stress in different systems. Reduction in the oxidative stress response induced by TBHP has been attributed to the ability of the antioxidant, NAC, to replenish intracellular glutathione levels. This reduces levels of reactive oxygen species.

[6] = tested on: Jurkat cells (T-cell leukemia, human); assay: Detection of ROS with and without a post-staining wash step, flow cytometry; format: cell-based
Description: Jurkat cells (T-cell leukemia, human) were treated with phosphate buffered saline (control; FIG. 8, panel A) or 200 μM tert-butyl-hydroperoxide (TBHP; FIG. 8, panel B) for one hour at 37° C., 5% CO2 prior to incubation with 500 nM Compound 1. Cell samples were directly analyzed on a Becton Dickinson LSRII flow cytometer equipped with a 488 nm laser line and a 525/50 bandpass filter for collection of fluorescence emission of Compound 1. Histogram overlays show cells analyzed immediately following 30 minutes incubation with Compound 1 (FIG. 8) compared to samples analyzed following three-3 mL wash steps (FIG. 8). […] The signal to noise ratio (or fold change in TBHP-treated cells as compared to control cells) in the no-wash samples was similar to the signal to noise ratio in the samples that were washed three times, 9.1 and 10.4, respectively, for the no-wash and the washed sample.

[7] = tested on: Jurkat cells (T-cell leukemia, human); assay: Detection of ROS in complete media vs. protein-containing buffer, flow cytometry; format: cell-based; conditions: 500 nM probe
Description: Jurkat cells (T-cell leukemia, human) were resuspended in complete medium (RPMI 1640 medium, GIBCO (Life Technologies, Carlsbad, Calif.), supplemented with 10% Fetal Bovine Serum, FBS) or phosphate buffered saline supplemented with 1% bovine serum albumin (BSA). Cells in both complete medium (FIG. 9, panel A) and buffered saline+1% BSA (FIG. 9, panel B) were treated with diluents control, phosphate buffered saline alone (FIG. 9, control) or 400 μM tert-butyl-hydroperoxide (FIG. 9, TBHP) for 30 minutes at 37° C., 5% CO2 prior to staining with 500 nM Compound 1. Cell samples were analyzed on a BD LSRII flow cytometer equipped with a 488 nm laser line and a 525/50 bandpass filter for collection of fluorescence emission of Compound 1. The median fluorescent intensity (MFI) of Compound 1 fluorescence in control cells (FIG. 9, panel A) and the MFI of Compound 1 fluorescence in TBHP-treated cells (FIG. 9, panel B) stained in complete media (FIG. 9, panel A) were increased compared to samples stained in protein-containing buffer (FIG. 9, panel B). As a consequence, the signal to noise ratio (or fold change in TBHP-treated cells as compared to control cells) in the samples stained in complete media (FIG. 9, panel A) is greater (13.6) than the signal to noise ratio in the samples stained in protein-containing buffer (9.6).

signal retention after formaldehyde fixation and detergent permeabilization [3]: retained well
Compound: CCCCC1=C/C(=C/C2Sc3ccccc3N2C)c2ccccc2N1c1ccccc1 (stereo not shown) [Compound 1, (Z)-2-((2-butyl-1-phenylquinolin-4(1H)-ylidene)methyl)-3-methyl-2,3-dihydrobenzo[d]thiazole]
signal of Compound 1 (fluorescence) in treated vs untreated cells [1]: increase
signal of Compound 1 (fluorescence) in treated vs untreated cells [2]: increase
fluorescence intensity in menadione and TBHP-treated cells compared to controls (Jurkat cells [4]): increase
Mean Fluorescence Intensity (MFI), TBHP-treated cells (Jurkat cells [5]; 200 μM TBHP 1 hour): 3944
Mean Fluorescence Intensity (MFI), TBHP + NAC treated cells (Jurkat cells [5]; 200 μM TBHP and 1 mM N-acetyl-L-cysteine 1 hour): 2768
Mean Fluorescence Intensity (MFI), control cells (Jurkat cells [5]; phosphate buffered saline control): 365
median fluorescence intensity (MFI), no-wash cells compared to washed cells ([6]; 500 nM probe 30 minutes, no wash vs three 3 mL wash steps): not significantly different
signal to noise ratio (fold change in TBHP-treated cells as compared to control cells), no-wash sample ([6]; 200 μM TBHP 1 hour, 500 nM probe, no wash): 9.1
signal to noise ratio (fold change in TBHP-treated cells as compared to control cells), washed sample ([6]; 200 μM TBHP 1 hour, 500 nM probe, washed three times): 10.4
signal to noise ratio (fold change in TBHP-treated cells as compared to control cells), protein-containing buffer ([7]; 400 μM TBHP 30 minutes, PBS + 1% BSA): 9.6
signal to noise ratio (fold change in TBHP-treated cells as compared to control cells), complete media ([7]; 400 μM TBHP 30 minutes, RPMI 1640 + 10% FBS): 13.6
median fluorescent intensity (MFI) in complete media compared to protein-containing buffer ([7]; control and 400 μM TBHP-treated cells): increased
